Measured values published in article PMC12935787, “Clinical pharmacokinetics and pharmacometabolomics of Andrographis paniculata capsules: Bridging drug disposition and metabolic response to precision medicine” (Naunyn-Schmiedeberg's Archives of Pharmacology, 2025).
Where two headings read alike, the source gives them in different places.

Experiment: Clinical pharmacokinetics, plasma LC-MS/MS after single oral dose of AP capsules
Type: in vivo, human (healthy volunteers)
Settings: human, plasma; for concentration at 0 h / concentration at 0.5 h / concentration at 1 h / concentration at 1.5 h / concentration at 2 h / concentration at 2.5 h / concentration at 3 h / concentration at 3.5 h / concentration at 4 h / concentration at 5 h / concentration at 6 h / concentration at 8 h / concentration at 10 h / concentration at 12 h / concentration at 24 h: oral, 2000 mg, 2000 mg AP capsules; for concentration at 0.5 h: 0.50 h; for concentration at 1.5 h: 1.50 h; for concentration at 2.5 h: 2.50 h; for concentration at 3.5 h: 3.50 h
Experimental: The protocol was published (Tee et al. [2022]).
Seven calibrators ranging from 1, 2, 5,10, 20, 50, and 100 ng mL^−1 were prepared. Frozen plasma was thawed, vortexed-mixes, and processed via protein precipitation: 50 µL plasma plus 100 µL 0.01% ammonia in methanol were vortexed (20 s), centrifuged (14800 rpm, 5 min) and […] supernatant was transferred to 2 mL vials with inserts. LC–MS/MS injection volume: 10 µL. The separation used a Phenomenex Gemini-NX C18 column (150 × 2.1 mm, 5 μm) with 0.01% ammonia (A) and acetonitrile/methanol (1:1, B) as mobile phases (0.30 mL min^-1). The gradient program: 40% B (0 min), linear increase to 95% B (3 min), hold to 5 min, sharp decrease to 10% B (5.01 min), hold to 7 min, return to 40% B (7.01 min), and re-equilibration to 10 min. Mass detection employed an LCMS-8060NX triple quadrupole with heated ESI in negative mode, monitoring specific MRM transitions: andrographolide (349.3 → 331.2/287.1), 14-deoxyandrographolide (331.2 → 108.0/301.1), and neoandrographolide (479.1 → 317.4/161.1).
Pharmacokinetic parameters were determined from plasma samples (5 subjects, 15 time points) analyzed via LC–MS/MS (Shimadzu 8060NX). […] Specific MRM transitions for andrographolide, 14-deoxyandrographolide, and neoandrographolide in plasma samples of subjects are illustrated in Figure S3. […] The dose-dependent concentration–time curves, pharmacokinetics profiles (Fig. 2a, b and c) and comprehensive individual PK data (Table S4) provide a foundation for developing personalized AP dosing regimens, supporting its precision medicine potential.

[1] = S1, read-out: Plasma concentration
[2] = S2, read-out: Plasma concentration
[3] = S3, read-out: Plasma concentration
[4] = S4, read-out: Plasma concentration
[5] = S5, read-out: Plasma concentration
[6] = mean n=5, read-out: Mean concentration
[7] = 2000 mg AP capsules oral, fasting, n=5

- concentration at 0 h [1]: 0 ng/mL
- concentration at 0.5 h [1]: 4.67 ng/mL
- concentration at 1 h [1]: 2.88 ng/mL
- concentration at 1.5 h [1]: 7.71 ng/mL
- concentration at 2 h [1]: 5.18 ng/mL
- concentration at 2.5 h [1]: 3.32 ng/mL
- concentration at 3 h [1]: 6.06 ng/mL
- concentration at 3.5 h [1]: 3.78 ng/mL
- concentration at 4 h [1]: 0 ng/mL
- concentration at 5 h [1]: 0 ng/mL
- concentration at 6 h [1]: 0 ng/mL
- concentration at 8 h [1]: 0 ng/mL
- concentration at 10 h [1]: 0 ng/mL
- concentration at 12 h [1]: 0 ng/mL
- concentration at 24 h [1]: 0 ng/mL
- concentration at 0 h [2]: 0 ng/mL
- concentration at 0.5 h [2]: 0 ng/mL
- concentration at 1 h [2]: 4.36 ng/mL
- concentration at 1.5 h [2]: 4.51 ng/mL
- concentration at 2 h [2]: 3.4 ng/mL
- concentration at 2.5 h [2]: 2.73 ng/mL
- concentration at 3 h [2]: 4.33 ng/mL
- concentration at 3.5 h [2]: 0 ng/mL
- concentration at 4 h [2]: 0 ng/mL
- concentration at 5 h [2]: 0 ng/mL
- concentration at 6 h [2]: 0 ng/mL
- concentration at 8 h [2]: 0 ng/mL
- concentration at 10 h [2]: 0 ng/mL
- concentration at 12 h [2]: 0 ng/mL
- concentration at 24 h [2]: 0 ng/mL
- concentration at 0 h [3]: 0 ng/mL
- concentration at 0.5 h [3]: 23.4 ng/mL
- concentration at 1 h [3]: 10.1 ng/mL
- concentration at 1.5 h [3]: 6.33 ng/mL
- concentration at 2 h [3]: 3.06 ng/mL
- concentration at 2.5 h [3]: 2.52 ng/mL
- concentration at 3 h [3]: 1.77 ng/mL
- concentration at 3.5 h [3]: 0 ng/mL
- concentration at 4 h [3]: 0 ng/mL
- concentration at 5 h [3]: 2.59 ng/mL
- concentration at 6 h [3]: 0 ng/mL
- concentration at 8 h [3]: 0 ng/mL
- concentration at 10 h [3]: 0 ng/mL
- concentration at 12 h [3]: 0 ng/mL
- concentration at 24 h [3]: 0 ng/mL
- concentration at 0 h [4]: 0 ng/mL
- concentration at 0.5 h [4]: 1.49 ng/mL
- concentration at 1 h [4]: 10 ng/mL
- concentration at 1.5 h [4]: 13.2 ng/mL
- concentration at 2 h [4]: 4.7 ng/mL
- concentration at 2.5 h [4]: 5.46 ng/mL
- concentration at 3 h [4]: 1.92 ng/mL
- concentration at 3.5 h [4]: 2.29 ng/mL
- concentration at 4 h [4]: 1.69 ng/mL
- concentration at 5 h [4]: 1.8 ng/mL
- concentration at 6 h [4]: 2.01 ng/mL
- concentration at 8 h [4]: 2.47 ng/mL
- concentration at 10 h [4]: 0 ng/mL
- concentration at 12 h [4]: 0 ng/mL
- concentration at 24 h [4]: 0 ng/mL
- concentration at 0 h [5]: 0 ng/mL
- concentration at 0.5 h [5]: 3.04 ng/mL
- concentration at 1 h [5]: 2.29 ng/mL
- concentration at 1.5 h [5]: 3.39 ng/mL
- concentration at 2 h [5]: 4.99 ng/mL
- concentration at 2.5 h [5]: 3.66 ng/mL
- concentration at 3 h [5]: 3.28 ng/mL
- concentration at 3.5 h [5]: 2.09 ng/mL
- concentration at 4 h [5]: 1.36 ng/mL
- concentration at 5 h [5]: 2.4 ng/mL
- concentration at 6 h [5]: 1.7 ng/mL
- concentration at 8 h [5]: 0 ng/mL
- concentration at 10 h [5]: 0 ng/mL
- concentration at 12 h [5]: 0 ng/mL
- concentration at 24 h [5]: 0 ng/mL
- concentration at 0 h [6]: 0 ng/mL
- concentration at 0.5 h [6]: 6.52 ng/mL
- concentration at 1 h [6]: 5.94 ng/mL
- concentration at 1.5 h [6]: 7.02 ng/mL
- concentration at 2 h [6]: 4.27 ng/mL
- concentration at 2.5 h [6]: 3.54 ng/mL
- concentration at 3 h [6]: 3.47 ng/mL
- concentration at 3.5 h [6]: 1.63 ng/mL
- concentration at 4 h [6]: 0.61 ng/mL
- concentration at 5 h [6]: 1.36 ng/mL
- concentration at 6 h [6]: 0.74 ng/mL
- concentration at 8 h [6]: 0.49 ng/mL
- concentration at 10 h [6]: 0 ng/mL
- concentration at 12 h [6]: 0 ng/mL
- concentration at 24 h [6]: 0 ng/mL
- AUC(0-inf) [7]: 21.2 ng·h/mL
- AUC(0-t) [7]: 19.6 ng·h/mL
- Cmax [7]: 7.02 ng/mL
- half-life [7]: 2.18 h
Compound: C=C1CC[C@@H]2[C@](C)(CO)[C@H](O)CC[C@@]2(C)[C@@H]1CCC1=CCOC1=O [14-deoxyandrographolide]
